pKd: −log10 of the molar value. Blank lines part the entries; values can stand above or below the molecule they belong to. Ends that are not written are not given here. Peptide text beside a SMILES is read from it.
Key:
AT2R [1] = target: T1, AT2R (Homo sapiens, UniProt P50052); experiment: Whole cell competition binding assay, AT2R-HEK-293 stable cell line; conditions: for IC50: whole cells, Table S4, read-out: Log IC50 AT2R (converted); for Fold selectivity AT1R/AT2R (IC50AT1R/IC50AT2R): whole cell IC50 values; for fold lower AT2R selectivity in comparison to [Y]6-AII: AT2R/AT1R selectivity relative to [Y]6-AII
T1 construct: expressed in transfected cells
T1 sequence (P50052 1-363): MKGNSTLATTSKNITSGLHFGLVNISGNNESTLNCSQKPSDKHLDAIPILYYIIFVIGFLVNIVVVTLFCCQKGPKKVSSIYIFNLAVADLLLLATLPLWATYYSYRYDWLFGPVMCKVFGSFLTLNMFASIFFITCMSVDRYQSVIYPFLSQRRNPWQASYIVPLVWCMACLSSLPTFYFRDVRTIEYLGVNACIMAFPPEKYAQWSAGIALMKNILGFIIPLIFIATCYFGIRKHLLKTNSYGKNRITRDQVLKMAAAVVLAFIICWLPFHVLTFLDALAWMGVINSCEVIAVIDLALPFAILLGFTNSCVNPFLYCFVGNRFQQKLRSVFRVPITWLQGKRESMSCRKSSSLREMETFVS
Excerpt: (§1) Materials. AT2R receptor-specific blocker PD123319 was purchased from Sigma-Aldrich Chemical Co. (St. Louis, MO). Human AGTR2 pcDNA3.1+ was obtained from the UMR cDNA Resource Center (University of Missouri-Rolla, Rolla, MO). All other chemicals were of analytic grade. The AT1aR and AT2R constructs were a kind gift from Lazlo Hunyady (Semmelweis University, Budapest, Hungary;1).
(§2) Mutagenesis. AT2R mutants were generated as described elsewhere.2
Cell culture and transient transfection. HEK-293T cells were maintained at 37 °C in Dulbecco's modified Eagle's medium (DMEM) supplemented with 10% (v/v) fetal bovine serum (FBS), 2 mM glutamine, 100 U/ml penicillin, and 100 µg/ml streptomycin. Cells were transfected with either AT1R (pcDNA3.1), AT2R
(pcDNAI/Amp) or AT2R variants using GeneJuice transfection reagent according to the manufacturer’s instructions. Cells were harvested 48 hours after transfection, crude membranes were prepared and resuspended in binding buffer (50 mM Tris-HCl pH 7.4, 100 mM NaCl, 10 mM MgCl2, 1mM EDTA, 0.2% BSA and 0.025% Bacitracin, protease inhibitors) at a protein concentration of 3.3 μg/μl as determined by the amido black protein assay. For whole cells assays, HEK-293 cells stably transfected with either AT1R or the AT2R (kindly supplied by Professor W. Thomas, University of Queensland) were used. These cells were grown to approximately 80% confluence and were then re-plated into 48 well plates at 1x10^5 cells/well and grown for 48 hours at 37°C for a whole cell competition binding assay, as described previously.4 Minor differences between the binding assays performed on isolated membrane preparation and whole cells are probably due to the loss of G-protein in the former.5 PC12W cells, a substrain from a clonal isolation of a rat adrenal chromaffin cell tumor, were cultured in DMEM supplemented with 10% FBS, 100 units/ml penicillin and 100μg/ml streptomycin (Invitrogen, Carlsbad, CA) as previously described.6 The cells were incubated in a 5% CO2 humidified incubator at 37°C. Preparation of recombinant replication-deficient adenovirus containing the human AT2R coding region was carried out by VECTOR BIOLABS (Philadelphia, PA).
For gene transduction with adenoviral vectors cells were seeded at 1.2 x 10^5 cells per well in a 6-well plate. After 24 hours, cells were incubated at 37°C for 6 hours in serum-free DMEM containing adenoviral vectors (Ad-AT2R 30 multiplicity of infection (MOI)), and shaken lightly every fifteen minutes. After 6 hr incubation, cells were cultured in 10% FBS containing DMEM at 37°C, 5% CO2 for an additional 24 hours.
Cells were then trypsinized and subcultured at a density of 2 x 10^3 cells per well on a 24-well plate. For the evaluation of the effect of [Y]6-AII analogue on the neurite outgrowth of PC12W cells, at 24 hours after subculture, control cells and the AT2R […]
Radioligand binding assays. Saturation curves on cell membranes were obtained using 10 μg protein per data point and a range of *125I]-AII (Amersham) concentration […]
(§3) 0-10 nM (8 data points in triplicate). Non-specific binding was determined in […]
Competition assays were performed using a concentration […]
the Figure 3. Samples were incubated for 2 hours at 4°C. Receptor-bound and free radioligand were separated by filtration through Whatman GF/B filters, pre-soaked with 0.3% polyethylamine. The filters were washed with 5 ml of ice-cold binding buffer and transferred to scintillation tubes. Radioactivity was counted on a Beckman LS6000 liquid scintillation counter and data were analyzed by non-linear regression using Prism software (GraphPad). Ki values were calculated according to the Cheng […]
Experiments on whole cells were performed in both AT1R- and AT2R-HEK-293 stable cell lines, as previously described in detail4 with minor modifications. Novel peptides and references compounds, CGP42112 and candesartan, were examined for their ability to inhibit specific binding of [125I]-Ang II, and nonspecific binding was determined using 10μM cold Ang II. […]

PAR4 receptor = tested on: PAR4 receptor; design: method as in Faruqi T., et al. [12]; conditions: ref Faruqi T., et al. [12]; cited from earlier work
PAR1 receptor = tested on: PAR1 receptor; design: method as in Faruqi T., et al. [12]; conditions: ref Faruqi T., et al. [12]; cited from earlier work
AT1R = target: T2, AT1R (Rattus norvegicus, UniProt P25095); experiment: [125I]-AII radioligand binding on isolated membranes, AT1R; conditions: competition with [125I]-AII, ligand concentration range 6.4 x 10-12-2.5 x 10^-6 M
T2 construct: expressed in transfected cells; host or cells: HEK-293T, transient, crude membranes
T2 sequence (P25095 1-359): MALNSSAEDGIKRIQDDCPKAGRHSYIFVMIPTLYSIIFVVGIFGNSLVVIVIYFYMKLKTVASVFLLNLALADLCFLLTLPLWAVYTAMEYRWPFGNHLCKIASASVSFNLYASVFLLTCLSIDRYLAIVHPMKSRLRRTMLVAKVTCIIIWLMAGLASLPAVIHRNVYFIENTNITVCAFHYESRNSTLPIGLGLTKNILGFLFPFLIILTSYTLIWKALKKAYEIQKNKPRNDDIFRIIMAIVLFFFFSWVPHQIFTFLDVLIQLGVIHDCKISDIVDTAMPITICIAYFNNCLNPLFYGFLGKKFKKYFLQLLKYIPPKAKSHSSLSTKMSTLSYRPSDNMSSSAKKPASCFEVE

AT2R [2] = experiment: [125I]-AII radioligand binding on isolated membranes, wild type AT2R; conditions: saturation assay, membranes of transfected HEK-293T cells, 2 hours on ice
Excerpt: as §1, §2
Cell culture and transient transfection. HEK-293T cells were maintained at 37 °C in Dulbecco's modified Eagle's medium (DMEM) supplemented with 10% (v/v) fetal bovine serum (FBS), 2 mM glutamine, 100 U/ml penicillin, and 100 µg/ml streptomycin. […]
(§4) (pcDNAI/Amp) or AT2R variants using GeneJuice transfection reagent according to the manufacturer’s instructions. Cells were harvested 48 hours after transfection, crude membranes were prepared and resuspended in binding buffer (50 mM Tris-HCl pH 7.4, 100 mM NaCl, 10 mM MgCl2, 1mM EDTA, 0.2% BSA and 0.025% Bacitracin, protease inhibitors) at a protein concentration of 3.3 μg/μl as determined by the amido black protein assay. […]
as §3
the Figure 3. […] Radioactivity was counted on a Beckman LS6000 liquid scintillation counter and data were analyzed by non-linear regression using Prism software (GraphPad). […]

[3] = tested on: AT2R-overexpressing PC12W cells; experiment: Neurite outgrowth in AT2R-overexpressing PC12W cells; type: cell-based, rat; conditions: Ad-AT2R transduced PC12W cells, 1 nM, 24 h stimulation; dose-dependent in the range of 1 pM to 100 nM
Protocol: Figure 3 (a) Competition binding assays of [Y]^6-AII analogue to AT1R, AT2R wild type, and mutants: AT1R, open circle; wild type AT2R, black circles; AT2R-Y189A, blue diamonds; AT2R-Y189N, green triangle; AT2R-F272(6.51)A, red square; AT2R-F272(6.51)H, orange triangle. Kd and Ki values are given in Supplementary Table S3. […] The neurite outgrowth-positive cells were defined as the cells with neurite length longer than their cell diameters. This experiment was carried out in triplicate and repeated twice.
as §1
Mutagenesis. AT2R mutants were generated as described elsewhere.2 […]
as §4

Molecule: GYPGKF
PAR4 receptor activity (PAR4 receptor): 55 | PAR1 receptor activity (PAR1 receptor): 0

Molecule: GFPGKF
PAR4 receptor activity (PAR4 receptor): 53 | PAR1 receptor activity (PAR1 receptor): 35

Molecule: CC[C@H](C)[C@H](NC(=O)[C@H](Cc1ccc(O)cc1)NC(=O)[C@@H](NC(=O)[C@H](CCCNC(=N)N)NC(=O)[C@@H](N)CC(=O)O)C(C)C)C(=O)N[C@@H](Cc1ccc(OP(=O)(O)O)cc1)C(=O)N1CCC[C@H]1C(=O)N[C@@H](Cc1ccccc1)C(=O)O [[4-OPO3H2-F]^6-AII, D1-R2-V3-Y4-I5-(4-OPO3H2-F)6-P7-F8] (HELM PEPTIDE1{D.R.V.Y.I.[O=C([C@H](Cc1ccc(OP(=O)(O)O)cc1)N[*:1])[*:2]].P.F}$$$$V2.0)
Ki AT1R (AT1R): No detectable competitive binding | Fold selectivity AT1R/AT2R (IC50AT1R/IC50AT2R) (AT2R [1]): 4479 fold | IC50 (AT2R [1]): 9.57 nM

Molecule: CC[C@H](C)[C@H](NC(=O)[C@H](Cc1ccc(O)cc1)NC(=O)[C@@H](NC(=O)[C@H](CCCNC(=N)N)NC(=O)[C@@H](N)CC(=O)O)C(C)C)C(=O)N[C@@H](Cc1c[nH]cn1)C(=O)N1CCC[C@H]1C(=O)N[C@@H](Cc1ccccc1)C(=O)O [AII]
pKd (AT2R [2]): 8.64 | neurite outgrowth [3]: significantly stimulated neurite outgrowth

Molecule: CC[C@H](C)[C@H](NC(=O)[C@H](Cc1ccc(O)cc1)NC(=O)[C@@H](NC(=O)[C@H](CCCNC(=N)N)NC(=O)[C@@H](N)CC(=O)O)C(C)C)C(=O)N[C@@H](Cc1ccc([N+](=O)[O-])cc1)C(=O)N1CCC[C@H]1C(=O)N[C@@H](Cc1ccccc1)C(=O)O [[4-NO2-F]^6-AII, D1-R2-V3-Y4-I5-(4-NO2-F)6-P7-F8] (HELM PEPTIDE1{D.R.V.Y.I.[O=C([C@H](Cc1ccc([N+](=O)[O-])cc1)N[*:1])[*:2]].P.F}$$$$V2.0)
Fold selectivity AT1R/AT2R (IC50AT1R/IC50AT2R) (AT2R [1]): 694 fold | fold lower AT2R selectivity in comparison to [Y]6-AII (AT2R [1]): 26 fold | IC50 (AT2R [1]): 4.92 nM

Molecule: G(F)PGKF
PAR4 receptor activity (PAR4 receptor): 61 | PAR1 receptor activity (PAR1 receptor): 111

Molecule: [125I]-AII: radioiodinated AII, radioligand of the binding assays (DRVYIHPF; also: 125I label, position not given here; UniProt P01019 25-32, looked up)
pKd (AT2R [2]): 8.64

Other lines, results leading:

IC50 (AT2R [1]): 0.558 nM
Molecule: CC[C@H](C)[C@H](NC(=O)[C@@H]1CCCN1C(=O)[C@H](Cc1c[nH]cn1)NC(=O)[C@H](CCCCNC(=O)[C@H](CCCN=C(N)N)NC(=O)OCc1ccccc1)NC(=O)[C@H](Cc1ccc(O)cc1)NC(=O)c1cccnc1)C(=O)O [CGP42112] (HELM PEPTIDE1{[O=C(c1cccnc1)[*:2]].Y.K.H.P.I}|PEPTIDE2{[O=C(OCc1ccccc1)[*:2]].R}$PEPTIDE1,PEPTIDE2,3:R3-2:R2$$$V2.0)

IC50 (AT2R [1]): 13500 nM
Molecule: CCOc1nc2cccc(C(=O)O)c2n1Cc1ccc(-c2ccccc2-c2nnn[nH]2)cc1 [Candesartan, candesartan]

Ki AT1R (AT1R): No detectable competitive binding | Fold selectivity AT1R/AT2R (IC50AT1R/IC50AT2R) (AT2R [1]): 18,000 fold
Molecule: DRVYIYPF [[Y]^6-AII, D1-R2-V3-Y4-I5-Y6-P7-F8]

Fold selectivity AT1R/AT2R (IC50AT1R/IC50AT2R) (AT2R [1]): 4786 fold | fold lower AT2R selectivity in comparison to [Y]6-AII (AT2R [1]): ~4 fold
Molecule: DRVYIFPF [[F]^6-AII, D1-R2-V3-Y4-I5-F6-P7-F8] [listing 1 of 2 here]

IC50 (AT2R [1]): 1.4 nM
Molecule: DRVYIFPF [[F]^6-AII, D1-R2-V3-Y4-I5-F6-P7-F8] [listing 2 of 2 here]

Reference: paper PMC4374176 (ACS Chemical Biology, 2014)
